The values that follow come from US8828966B2, “Method for treatment of macular degeneration by modulating P2Y12 or P2X7 receptors” (priority 2006, dated 2014).

Assay [1] relates to ARPE-19 cells. The assay can be described thus: Lysosomal pH (pHL) with LysoSensor Yellow/Blue, high through-put screen. The format is cell-based, human. Particulars: for effect on pHL of cells treated with tamoxifen: tamoxifen concentration not stated, A68930 and A77636 at 1 μM. The procedure:
Lysosensor Yellow/Blue co-localized with the Lysotracker Red dye in small vesicles, with a distribution consistent with lysosomal origin. Measurements of pHL were performed using a high throughput screening (HTS) protocol to maximize output and minimize variation using ARPE-19 cells in 96 well plates. […] Loading for 5 min. at 23° C. with 5 μM lysosensor, followed by 15 min. for internalization, produced stable and reproducible results.
The ratio was converted to pH by calibrating with KCl buffered to pH 4.0-6.0 in the presence of monensin and nigericin. Calibration indicated a baseline pH of 4.4 to 4.5, supporting lysosomal localization. […] NH4Cl decreased the ratios slightly at 380 nm. Nevertheless, absent the addition of the dye, none of these compounds, or any others, altered the fluorescent signal at 340 or 380 nm, showing a specificity of the measured change to pHL. […] This quantification is necessary to predict the potential effectiveness of acidifying drugs to restore lysosomal enzyme activity.
Extensive trials determined that the optimal response is obtained with 5 minute dye loading and 15 minute post-incubation. […] All reagents were from Sigma Chemical Corp. unless otherwise indicated.
In general, each condition below used 3-12 independent wells per plate, in 3-6 separate plates. As levels from individual plates varied, data was normalized to the mean pHL for control wells from each plate. Fluorescent ratios were converted to pH following calibration performed on each plate as described. Incubation with Lysosensor Yellow/Blue was kept constant and all measurements were performed 15 min after removal of dye from the bath to ensure continuity. Significance was determined with a one-way ANOVA and Tukey post test. Drugs were always tested on control cells to ensure modification of healthy RPE cells was minimal, and cells were not exposed to dye to make sure effects were specific. All background was subtracted from the fluorescence excited at 340 and 380 nm independently before calculation of the ratio.

Assay [2] relates to RPE cells from ABCA4−/− mice. The assay can be described thus: Lysosomal pH in fresh RPE cells from ABCA4-/- mice, drug added to the cells. The format is cell-based, mouse. Particulars: RPE cells from 11-month-old ABCA4−/− mice. From the text:
Measurement of pHL from Isolated Mouse Cells: Based on protocols that are used extensively to measure Ca2^+ from retinal ganglion cells (Zhang et al. Invest. Ophthalmol. Vis. Sci. 46:2183-2191 (2005)), cells were fixed on coverslips and mounted on Nikon Eclipse inverted microscope, visualized with a x40 oil-immersion fluorescence objective, and perfused with control solution. The field was alternatively excited at 340 nm and 380 nm, and fluorescence >515 emitted from the region of interest surrounding individual cells is measured with a CCD camera and Imagemaster software (Photon Technologies International, Inc). After baseline levels were recorded for 3-5 minutes in the absence of dye, solution was replaced with 5 μM Lysosensor Yellow/Blue dye for 5 minutes before washing for an additional 15 minutes. The ratios in the control solutions were recorded, and then acidifying drugs were added. Ratios were converted to pH with monensin/nigericin as above.
As a result, lysosomal pH increases early, and is measured in ABCA4^−/− mice at 6, 12 and 18 weeks from RPE cells within 5 hours of sacrifice. […] However, the signal/noise from measurements of isolated cells with the plate reader is not acceptable. Instead, this signal is measured using the microscope-based imaging system, previously used successfully to measure Ca2^+ from freshly isolated retinal ganglion cells (Zhang et al., supra, 2005). […]

Assay [3] relates to primate model of the disease. As to conditions: delivered orally; cited from earlier work.
Assay [4] relates to ARPE-19 cells. Description: FACS analysis of autofluorescence (excited at 488 nm). Particulars: photoreceptor outer segments plus 10 μM chloroquine, 7 days. It is filed as cell-based, human. An excerpt: To maintain a balance between the synthesis, degradation, and subsequent recycling of cellular products there are a variety of autophagic responses, but all involve degradation of intracellular components via the lysosome. Typically, autophagy involves the formation of a membrane around a targeted region of the cell, separating the contents from the rest of the cytoplasm, and then the resultant vesicle fuses with a lysosome and the contents are subsequently degraded.

For another assay, the system named is other P2 receptors. Particulars: cited from earlier work.
For another assay, the system named is cAMP in the RPE. The assay can be described thus: Effect of ATP on cAMP in the RPE. It is filed as cell-based. The procedure: P2Y11 Receptor: The initial investigation screened agonists that act at multiple P2 receptors for their effect on pHL using the high through-put assay. BzATP, ATP, ATPγS, ADPγS and 2 MeSATP and AR-C67085 were added at 10, 30, 100 and 300 μM, respectively, and relative actions were compared with published information for the human P2Y11 receptor (von Kugelgen et al, supra, 2000; Communi et al., supra, 1997; Communi et al., Br. J. Pharmacol. 128:1199-206 (1999)). ATP was added in the presence of ecto-ATPase/eNPP inhibitors βγmATP and ARL67156 (100 μM) since they prevent degradation of ATP in these cells. Receptor involvement was confirmed with antagonists suramin, reactive blue 2 and pyridoxal-phosphate-6-azophenyl-2′,4′-disulphonic acid (PPADS; all at 0.1, 1, 10 and 100 μM). Since the finding that ATP had the ability to elevate cAMP in the RPE was novel, the effect of ATP on cAMP was measured directly using the cAMP-Screen Direct Chemiluminescent Immunoassay System kit from Applied Biosystems using an HTS luminometer to measure […]. The role of cAMP was confirmed by inhibiting pKA with 100 μM Rp-8-Br-cAMPS.

The test system of assay [5] is ABCA4−/− mice. The assay can be described thus: Oral P2Y12 inhibitor in ABCA4-/- mice, lysosomal pH of RPE cells. It is filed as in vivo, mouse. The procedure: In this example the selected P2Y12 inhibitor was clopidogrel (commercially available as Plavix), but the invention need not be so limited, and other P2Y12 inhibitors, such as AR-C66096, may be used. The clopidogrel was given orally at 50 mg/kg and the pH measured from RPE cells that were removed 4 hrs later.

Assay [6] has as its system ARPE-19 cells. Description: Clearance (degradation) of calcein-labeled photoreceptor outer segments. As to conditions: after 24 hrs. The format is cell-based, human. The procedure:
Outer Segment Degradation: Bovine retinas were homogenized in 20% sucrose with 130 mM NaCl, 20 mM Tris-HCl, 10 mM glucose, 5 mM taurine and 2 mM MgC12 (pH 7.20). The homogenate was placed in ultracentrifuge tubes with 20%, 27%, 33%, 41%, 50% and 60% sucrose, respectively, and centrifuged for 70 minutes at 28,000 rpm on a SW28 rotor (4° C.). The supernatant was filtered, diluted in 0.02M Tris-HCl buffer (pH 7.2) and centrifuged at 13,000×g for 10 minutes (4° C.). The pellet was resuspended in […], 0.1 mM NaCl and 2.5% sucrose. Outer segments were loaded with 5 μM calcein-AM in PBS for 10 minutes, and spun 2× at 14,000 rpm to wash. Outer segments were then diluted 1:100 in growth medium and added to ARPE-19 cells in 96-well plates.
Isolated bovine outer segments loaded with calcein were supplied to ARPE-19 cells in 96-well plates for 2 hrs, washed 3× and maintained in control medium for an additional 3 hr (see Methods). […] Promising compounds were examined for their effects on cells treated with A2E, although the restoration of pHL is unlikely to remove A2E itself. However, other components of the outer segments are amendable to digestion by lysosomal enzymes at the appropriate pHL, and acidification could minimize the secondary effect of this accumulation.

Assay [7] relates to primary cultures of bovine RPE cells. The assay can be described thus: Lysosomal pH in primary bovine RPE cultures. It is filed as cell-based. The procedure: Isolation of Bovine and Mouse RPE Cells: The bovine RPE-choroid and sclera were removed, incubated in 2.5% trypsin at 37° C. in 5% CO2 for 30 min, after which RPE sheets are dissected, washed and plated in 96-well plates with 10% serum medium. Mouse eyes were incubated in DMEM for 3 hrs at room temperature (RT), then in 0.1% trypsin and 0.4 mg/ml collagenase IV with 1 mM EDTA for 45 min at RT. RPE sheets were dissected out, washed, and incubated with 0.25% trypsin/0.02% EDTA in order to obtain a suspension of single cells, then grown as above.
HTS Measurement of pHL: ARPE-19 cells were grown in 96-well plates, rinsed 3× with isotonic solution (IS; prepared from NaCl 105 mM, KCl 5 mM, HEPES Acid 6 mM, Na HEPES 4 mM, NaHCO3 5 mM, mannitol 60 mM, glucose 5 mM, MgCl2 0.5 mM, CaCl2 1.3 mM) and incubated with 5 μM LysoSensor Yellow/Blue (Invitrogen Corp.) diluted with IS. Extensive trials determined that the optimal response is obtained with 5 minute dye loading and 15 minute post-incubation. Fluorescence was measured with a Fluoroskan 96-well Plate Reader (Thermo Electron Corp.). pHL was determined from the ratio of light excited at 340 nm vs 380 nm ([…] em). pHL was calibrated by exposing cells to 10 μM H^+/Na^+ ionophore monensin and 20 μM H^+/K^+ ionophore nigericin in 20 MES, 110 KCl and 20 NaCl at pH 3.0-7.0 for 15 min. All reagents were from Sigma Chemical Corp. unless otherwise indicated.

Assay [8] deals with ABCA4−/− mice. Description: Oral ticagrelor in ABCA4-/- mice, RPE autofluorescence. The format is in vivo, mouse. As to conditions: 26 month old mice, 12 ug/ml in the water for 4 days, excited with 406 nm laser. From the text: Finally, as recorded in the photographic images of FIG. 12F, autofluorescence in untreated ABCA4−/− mice (upper, Con)) were compared with those treated with Brilinta (lower, Bri) in the water.

On to `NC[C@@H]1O[C@H](c2ccccc2)Cc2c1ccc(O)c2O` [A68930], for which the “effect on pHL of cells treated with tamoxifen” value with ARPE-19 cells [1] is on record as “decreased lysosomal pH”. Further, the “effect on pHL (ratio 340 to 380 nm)” value in assay [2] is “decreased pHL”.

Take `NC[C@@H]1O[C@H](C23CC4CC(CC(C4)C2)C3)Cc2c1ccc(O)c2O` [A77636]: the Parkinsonian activity result in assay [3] was “reduces Parkinsonian activity”. Further, the “effect on pHL of cells treated with tamoxifen” value in the assay with ARPE-19 cells [1] was “decreased lysosomal pH”. Further, the “effect on pHL (ratio 340 to 380 nm)” value in assay [2] is “decreased pHL”.

For the molecule `Cl.Clc1cccc(-c2nnnn2Cc2cccnc2)c1Cl` [A438079, 3-[[5-(2,3-Dichlorophenyl)-1H-tetrazol-1-yl]methyl]pyridine hydrochloride salt], the “effect on autofluorescence enhanced by POS+CHQ” value with ARPE-19 cells [4] is “reduced this enhanced autofluorescence”. Moreover, in the assay on ARPE-19 cells [1] (cells stimulated with BzATP), the “effect on pHL rise by P2X7 agonist BzATP” value is “prevented this rise”. For the same molecule, the “activity at other P2 receptors” value with other P2 receptors was “devoid of activity at other P2 receptors”.

`Nc1ncnc2c1ncn2[C@@H]1O[C@H](COP(=O)(O)OP(=O)(O)OP(=O)(O)O)[C@@H](O)[C@H]1O` [ATP]: the “effect on lysosomal pH, conditions not stated” value in the assay with ARPE-19 cells [1] is “acidify lysosomes”. Moreover, in the assay with cAMP in the RPE, the “effect on cAMP in the RPE” value was “elevate cAMP”.

As to `COC(=O)[C@H](c1ccccc1Cl)N1CCc2sccc2C1` [clopidogrel], the “lysosomal pHL in RPE cells after single oral dose” value in the assay on ABCA4−/− mice [5] (9-11 month old mice, 50 mg/kg orally, single dose, cells removed 4 hrs later) is “reduced”.

For the molecule `CC/C(=C(\c1ccccc1)c1ccc(OCCN(C)C)cc1)c1ccccc1` [tamoxifen], the “clearance of calcein-labeled outer segments, alkalinizing agent alone” value in the assay with ARPE-19 cells [6] is listed as “slowed clearance of outer segments”. Also, the “time for elevated lysosomal pH to reach a plateau” value in the assay on ARPE-19 cells [1] is 10-15 minutes. Besides, the “effect on pHL, agent alone” value is given as “raised pHL” in the assay with ARPE-19 cells [1] (cells without other alkalinizing agent, NH4Cl 10 mM, BAF 200 nM, CHQ 20 μM, CFTR-172 10 μM, LDL 10 μg/ml, others not given) and “increased pHL” in assay [7].

With `CCCSc1nc(N[C@@H]2C[C@H]2c2ccc(F)c(F)c2)c2nnn([C@@H]3C[C@H](OCCO)[C@@H](O)[C@H]3O)c2n1` [ticagrelor], the “lysosomal pH of RPE cells (ratio of pH sensor) after drug in the water” value in the assay with ABCA4−/− mice [5] (20 month old mice, 12 ug/ml in the water for 19 days) is “reduced lysosomal pH of RPE cells”. Also, in the assay with ABCA4−/− mice [8], the “autofluorescence in RPE cells” value is recorded as “decreased autofluorescence”.
